Legend:
Type in all cases: biochemical
[1] = target: T1, EGFR (Homo sapiens, UniProt P00533); experiment: Kinase activity inhibition assay (HTRF TK Kit), selectivity
T1 construct: purchased Carna 08-115
Procedure, shortened: (§1)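 Compounds are serially diluted and incubated with kinase, substrate and ATP at room temperature, the plate having been prepared on ice. Detection reagents are then added for 1 h, and the 665/620 nm fluorescence ratio is converted to percent inhibition for curve fitting.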

[2] = target: T2, ITK (Homo sapiens, UniProt Q08881); experiment: as above
T2 construct: purchased Carna 08-181
T2 sequence (Q08881 1-620): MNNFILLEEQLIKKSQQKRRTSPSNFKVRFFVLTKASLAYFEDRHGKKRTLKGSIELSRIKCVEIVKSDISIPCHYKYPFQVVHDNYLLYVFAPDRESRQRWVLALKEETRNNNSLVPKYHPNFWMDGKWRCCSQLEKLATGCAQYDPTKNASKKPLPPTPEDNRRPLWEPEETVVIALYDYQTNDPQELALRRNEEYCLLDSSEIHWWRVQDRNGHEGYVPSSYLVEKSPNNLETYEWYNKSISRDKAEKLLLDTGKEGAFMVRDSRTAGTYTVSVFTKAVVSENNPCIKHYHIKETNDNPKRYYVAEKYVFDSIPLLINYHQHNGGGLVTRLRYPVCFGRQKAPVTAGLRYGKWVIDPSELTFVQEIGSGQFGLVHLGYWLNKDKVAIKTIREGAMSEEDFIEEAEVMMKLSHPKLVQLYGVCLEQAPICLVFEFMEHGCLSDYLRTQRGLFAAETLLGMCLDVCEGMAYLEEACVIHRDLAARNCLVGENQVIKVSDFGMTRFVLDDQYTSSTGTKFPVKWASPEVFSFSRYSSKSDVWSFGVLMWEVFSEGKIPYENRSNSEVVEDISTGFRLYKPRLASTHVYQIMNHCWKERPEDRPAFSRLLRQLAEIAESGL
Procedure, shortened: as §1

[3] = target: T3, TEC (Homo sapiens, UniProt P42680); experiment: as above
T3 construct: purchased Carna 08-182
T3 sequence (P42680 1-631): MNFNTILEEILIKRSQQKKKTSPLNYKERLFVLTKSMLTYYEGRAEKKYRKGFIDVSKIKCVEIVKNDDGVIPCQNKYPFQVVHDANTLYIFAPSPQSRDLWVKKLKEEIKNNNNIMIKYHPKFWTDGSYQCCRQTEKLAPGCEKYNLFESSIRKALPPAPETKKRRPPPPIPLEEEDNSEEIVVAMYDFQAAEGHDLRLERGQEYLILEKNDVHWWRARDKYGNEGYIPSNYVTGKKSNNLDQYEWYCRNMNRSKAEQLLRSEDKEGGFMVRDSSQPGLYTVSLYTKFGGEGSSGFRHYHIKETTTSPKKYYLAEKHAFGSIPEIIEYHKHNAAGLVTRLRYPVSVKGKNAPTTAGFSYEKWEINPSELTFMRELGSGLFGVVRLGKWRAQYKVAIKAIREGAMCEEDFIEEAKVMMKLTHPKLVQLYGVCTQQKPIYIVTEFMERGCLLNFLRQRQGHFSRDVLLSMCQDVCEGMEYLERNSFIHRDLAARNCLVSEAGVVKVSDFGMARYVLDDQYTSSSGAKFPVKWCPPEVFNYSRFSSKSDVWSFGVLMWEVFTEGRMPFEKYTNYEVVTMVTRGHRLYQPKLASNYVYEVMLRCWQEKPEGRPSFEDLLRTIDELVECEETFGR
Procedure, shortened: as §1

[4] = target: T4, BTK kinase (Homo sapiens, UniProt Q06187); experiment: Kinase activity inhibition assay (HTRF TK Kit)
T4 construct: purchased Invitrogen PV3587
T4 sequence (Q06187 whole entry): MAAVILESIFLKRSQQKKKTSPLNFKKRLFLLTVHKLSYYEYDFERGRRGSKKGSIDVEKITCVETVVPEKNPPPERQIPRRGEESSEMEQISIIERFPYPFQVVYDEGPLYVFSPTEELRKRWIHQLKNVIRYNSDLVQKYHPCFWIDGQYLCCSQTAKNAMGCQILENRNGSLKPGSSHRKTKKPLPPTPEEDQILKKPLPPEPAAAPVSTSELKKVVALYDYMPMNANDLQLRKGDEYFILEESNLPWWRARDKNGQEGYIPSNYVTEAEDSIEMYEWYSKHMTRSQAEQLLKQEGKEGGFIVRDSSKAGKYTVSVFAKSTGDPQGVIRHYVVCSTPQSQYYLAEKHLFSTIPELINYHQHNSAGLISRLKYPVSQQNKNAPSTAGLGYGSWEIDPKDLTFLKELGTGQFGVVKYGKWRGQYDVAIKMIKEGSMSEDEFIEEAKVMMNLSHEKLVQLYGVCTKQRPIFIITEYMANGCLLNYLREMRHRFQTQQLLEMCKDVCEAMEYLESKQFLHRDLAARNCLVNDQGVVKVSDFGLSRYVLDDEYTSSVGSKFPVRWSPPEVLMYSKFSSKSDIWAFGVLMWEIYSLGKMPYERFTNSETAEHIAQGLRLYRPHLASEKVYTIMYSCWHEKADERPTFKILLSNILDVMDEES
Procedure, shortened: as §1

[5] = target: T5, BTK C481S (Homo sapiens, UniProt Q06187, C481S); experiment: Kinase activity inhibition assay (HTRF TK Kit)
T5 construct: purchased Carna 08-547
T5 sequence (Q06187 whole entry C481S): as the sequence (Q06187 whole entry) above, with C481S counted along it
Procedure, shortened: as §1

[6] = target: T6, BTK T474I (Homo sapiens, UniProt Q06187, T474I); experiment: Kinase activity inhibition assay (HTRF TK Kit)
T6 construct: purchased SignalChem B10-12HH
T6 sequence (Q06187 whole entry T474I): as the sequence (Q06187 whole entry) above, with T474I counted along it
Procedure, shortened: as §1

T1 sequence (P00533 669-1210 limits assumed): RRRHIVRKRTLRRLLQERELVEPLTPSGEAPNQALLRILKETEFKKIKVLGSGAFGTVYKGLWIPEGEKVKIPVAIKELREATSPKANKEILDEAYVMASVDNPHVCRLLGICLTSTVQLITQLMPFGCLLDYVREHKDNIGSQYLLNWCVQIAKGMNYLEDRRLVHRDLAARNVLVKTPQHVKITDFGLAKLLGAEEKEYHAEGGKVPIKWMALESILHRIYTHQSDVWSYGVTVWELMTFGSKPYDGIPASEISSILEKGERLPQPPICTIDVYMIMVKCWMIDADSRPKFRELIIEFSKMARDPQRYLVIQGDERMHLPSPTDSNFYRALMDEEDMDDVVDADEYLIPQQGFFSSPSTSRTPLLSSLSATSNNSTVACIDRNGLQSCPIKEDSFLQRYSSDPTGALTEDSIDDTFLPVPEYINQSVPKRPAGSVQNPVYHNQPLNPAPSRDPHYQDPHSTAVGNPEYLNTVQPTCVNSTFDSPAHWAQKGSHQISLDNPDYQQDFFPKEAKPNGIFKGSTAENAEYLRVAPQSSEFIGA

| IC50 [1] | IC50 [2] | IC50 [3] | IC50 [4] | IC50 [5] | IC50 [6] | Structure (SMILES) |
| --- | --- | --- | --- | --- | --- | --- |
| 5 to 50 nM | > 500 nM | 5 to 50 nM | 1 to 5 nM | 1 to 5 nM | 50 to 500 nM | COc1ccc(F)cc1C(=O)NCc1ccc(-c2ncc(-c3ccn4nccc4n3)c3[nH]nc(N)c23)cc1 [Example 46, N-(4-(3-amino-7-(pyrazolo[1,5-a]pyrimidin-5-yl)-1H-pyrazolo[4,3-c]pyridin-4-yl)benzyl)-5-fluoro-2-methoxybenzamide] |
| 50 to 500 nM | > 500 nM | 5 to 50 nM | 1 to 5 nM | 1 to 5 nM | 50 to 500 nM | COc1ccc(F)cc1C(=O)NCc1ccc(-c2ncc(-c3ccc4cn[nH]c4n3)c3[nH]nc(N)c23)cc1 [Example 47, N-(4-(3-amino-7-(1H-pyrazolo[3,4-b]pyridin-6-yl)-1H-pyrazolo[4,3-c]pyridin-4-yl)benzyl)-5-fluoro-2-methoxybenzamide] |
| 50 to 500 nM | 50 to 500 nM | 5 to 50 nM | 1 to 5 nM | 1 to 5 nM | 5 to 50 nM | COc1ccc(F)cc1C(=O)NCc1ccc(-c2ncc(-c3ccc(C(F)F)cn3)c3[nH]nc(N)c23)cc1 [Example 48, N-(4-(3-amino-7-(5-(difluoromethyl)pyridin-2-yl)-1H-pyrazolo[4,3-c]pyridin-4-yl)benzyl)-5-fluoro-2-methoxybenzamide] |
| 50 to 500 nM | > 500 nM | 5 to 50 nM | 1 to 5 nM | 1 to 5 nM | 50 to 500 nM | COc1ccc(F)cc1C(=O)NCc1ccc(-c2ncc(-c3cn4ccnc4cn3)c3[nH]nc(N)c23)cc1 [Example 50, N-(4-(3-amino-7-(imidazo[1,2-a]pyrazin-6-yl)-1H-pyrazolo[4,3-c]pyridin-4-yl)benzyl)-5-fluoro-2-methoxybenzamide] |
| 50 to 500 nM | > 500 nM | 5 to 50 nM | 1 to 5 nM | ≤ 1 nM | 50 to 500 nM | COc1ccc(F)cc1C(=O)NCc1ccc(-c2ncc(-c3ccc4nccn4n3)c3[nH]nc(N)c23)cc1 [Example 51, N-(4-(3-amino-7-(imidazo[1,2-b]pyridazin-6-yl)-1H-pyrazolo[4,3-c]pyridin-4-yl)benzyl)-5-fluoro-2-methoxybenzamide] |
| 50 to 500 nM | 50 to 500 nM | 5 to 50 nM | ≤ 1 nM | ≤ 1 nM | 5 to 50 nM | COc1ccc(F)cc1C(=O)NCc1ccc(-c2ncc(-c3ccc(C(=O)N4CCOCC4)cn3)c3[nH]nc(N)c23)cc1 [Example 52, N-(4-(3-amino-7-(5-(morpholine-4-carbonyl)pyridin-2-yl)-1H-pyrazolo[4,3-c]pyridin-4-yl)benzyl)-5-fluoro-2-methoxybenzamide] |
| 50 to 500 nM | 50 to 500 nM | 5 to 50 nM | 1 to 5 nM | 1 to 5 nM | 50 to 500 nM | COc1ccc(F)cc1C(=O)NCc1ccc(-c2ncc(-c3ccc(C(=O)N4C[C@H](C)O[C@@H](C)C4)cn3)c3[nH]nc(N)c23)cc1 [Example 53, N-(4-(3-amino-7-(5-((2S,6S)-2,6-dimethylmorpholine-4-carbonyl)pyridin-2-yl)-1H-pyrazolo[4,3-c]pyridin-4-yl)benzyl)-5-fluoro-2-methoxybenzamide] |
| 50 to 500 nM | 50 to 500 nM | 5 to 50 nM | 1 to 5 nM | 1 to 5 nM | 50 to 500 nM | COc1ccc(F)cc1C(=O)NCc1ccc(-c2ncc(-c3ccc(C(=O)N4C[C@@H](C)O[C@H](C)C4)cn3)c3[nH]nc(N)c23)cc1 [Example 54, N-(4-(3-amino-7-(5-((2R,6R)-2,6-dimethylmoroholine-4-carbonyl)pyridin-2-yl)-1H-pyrazolo[4,3-c]pyridin-4-yl)benzyl)-5-fluoro-2-methoxybenzamide] |
| 50 to 500 nM | 50 to 500 nM | 5 to 50 nM | 1 to 5 nM | 1 to 5 nM | 5 to 50 nM | COc1ccc(F)cc1C(=O)NCc1ccc(-c2ncc(-c3ccc(P(C)(C)=O)cn3)c3[nH]nc(N)c23)cc1 [Example 56, N-(4-(3-amino-7-(5-(dimethylphosphoryl)pyridin-2-yl)-1H-pyrazolo[4,3-c]pyridin-4-yl)benzyl)-5-fluoro-2-methoxybenzamide] |
| 50 to 500 nM | > 500 nM | 50 to 500 nM | 1 to 5 nM | ≤ 1 nM | 50 to 500 nM | COc1ccc(F)cc1C(=O)NCc1ccc(-c2ncc(-c3nc4cnccn4n3)c3[nH]nc(N)c23)cc1 [Example 57, N-(4-(7-([1,2,4]triazolo[1,5-a]pyrazin-2-yl)-3-amino-1H-pyrazolo[4,3-c]pyridin-4-yl)benzyl)-5-fluoro-2-methoxybenzamide] |
| 50 to 500 nM | > 500 nM | 5 to 50 nM | 1 to 5 nM | 1 to 5 nM | 5 to 50 nM | COc1ccc(F)cc1C(=O)NCc1ccc(-c2ncc(-c3nc4ccccn4n3)c3[nH]nc(N)c23)cc1 [Example 58, N-(4-(7-([1,2,4]triazolo[1,5-a]pyridin-2-yl)-3-amino-1H-pyrazolo[4,3-c]pyridin-4-yl)benzyl)-5-fluoro-2-methoxybenzamide] |
| 5 to 50 nM | 50 to 500 nM | 5 to 50 nM | ≤ 1 nM | ≤ 1 nM | 5 to 50 nM | COCCOc1ccc(-c2cnc(-c3ccc(CNC(=O)c4cc(F)ccc4OC)cc3)c3c(N)n[nH]c23)nc1 [Example 59, N-(4-(3-amino-7-(5-(2-methoxyethoxy)pyridin-2-yl)-1H-pyrazolo[4,3-c]pyridin-4-yl)benzyl)-5-fluoro-2-methoxybenzamide] |
| 5 to 50 nM | 50 to 500 nM | 5 to 50 nM | ≤ 1 nM | ≤ 1 nM | 5 to 50 nM | COc1ccc(F)cc1C(=O)NCc1ccc(-c2ncc(-c3ccc(OCCN(C)C)cn3)c3[nH]nc(N)c23)cc1 [Example 60, N-(4-(3-amino-7-(5-(2-(dimethylamino)ethoxy)pyridin-2-yl)-1H-pyrazolo[4,3-c]pyridin-4-yl)benzyl)-5-fluoro-2-methoxybenzamide] |
| 5 to 50 nM | 50 to 500 nM | 5 to 50 nM | ≤ 1 nM | ≤ 1 nM | 5 to 50 nM | COc1ccc(F)cc1C(=O)NCc1ccc(-c2ncc(-c3ccc(OCCN4CCOCC4)cn3)c3[nH]nc(N)c23)cc1 [Example 61, N-(4-(3-amino-7-(5-(2-morpholinoethoxy)pyridin-2-yl)-1H-pyrazolo[4,3-c]pyridin-4-yl)benzyl)-5-fluoro-2-methoxybenzamide] |
| 5 to 50 nM | 50 to 500 nM | 50 to 500 nM | 1 to 5 nM | 1 to 5 nM | 5 to 50 nM | COc1ccc(F)cc1C(=O)NCc1ccc(-c2ncc(-c3ccc(OCCN4CCCC4)cn3)c3[nH]nc(N)c23)cc1 [Example 62, N-(4-(3-amino-7-(5-(2-(pyrrolidin-1-yl)ethoxy)pyridin-2-yl)-1H-pyrazolo[4,3-c]pyridin-4-yl)benzyl)-5-fluoro-2-methoxybenzamide] |
| 5 to 50 nM | 50 to 500 nM | 1 to 5 nM | 1 to 5 nM | 1 to 5 nM | 1 to 5 nM | COc1ccc(F)cc1C(=O)NCc1ccc(-c2ncc(-c3ccc(C(C)(C)O)cn3)c3[nH]nc(N)c23)cc1 [Example 65, N-(4-(3-amino-7-(5-(2-hydroxypropan-2-yl)pyridin-2-yl)-1H-pyrazolo[4,3-c]pyridin-4-yl)benzyl)-5-fluoro-2-methoxybenzamide] |
